Source: patent publication EP0005055A2, “6,11-Dihydrodibenzo-thiepin-11-ones and their S-oxides, methods for their preparation and pharmaceutical compositions containing them” (SYNTEX (U.S.A.) INC., priority 1978, dated 1979)

Legend:
[1] = Mouse Acute Oral Toxicity (LD50); settings: in vivo, oral by stomach tube, single dose, mice observed for deaths over 14 days
Experimental: B) Mouse Acute Oral Toxicity (LD50)
Protocol: The test material is suspended in an aqueous vehicle containing carboxymethyl cellulose. A volume of 10 ml/kg body weight is used for each dose. The test material is given orally by stomach tube to 24 male Swiss-Webster mice, 6 per group, on the first day of the test, using doses of 250, 500, 1000 and 2000 mg./kg. body weight of test compound. Another group of 6 mice, receiving the vehicle only, serve as the control. The mice are observed for deaths over a 14-day period.

Albino rats = assay: Heat Induced Dermal Trauma Assay; format: in vivo; settings: topical in ethanol, treatment 0 post burn, skin disc weighed 3 hours later, 6 rats, control 500.7±13.6
Experimental: A) Heat Induced Dermal Trauma Assay ,
Test Animal: Albino rats, 120-140 g.
Procedure: The ventral area of the rats is shaved and depilated with a commercially available depilatory on the afternoon of the day prior to trauma. (The depilatory is applied for 15 minutes and then removed by washing with water.) The following day, a 25 mm diameter circle is traced on the abdomen beneath the sternum with a colored pen. A brass stamp of the same size, through which hot water (53°C) is circulated, is firmly applied to the center of the colored outline for 45 seconds while the rats are lightly anesthetized with ether. The test materials in ethanol are administered topically to the tramatized area immediately after withdrawing the stamp. The animals are sacrificed 3 hours later, at which time the ventral skin is removed and a piece of skin form the center of the marked area is punched out with a No. 10 cork bore and weighed.
End Point: The weight in mg of the inflammed piece of skin which is removed from the marked area with the cork bore.

In the case of `O=C(O)Cc1ccc2c(c1)[S+]([O-])Cc1ccccc1C2=O` (stereo not shown) [6,11-dihydrodibenzo-[b.e]-thiepin-11-one-3-acetic S-oxide], the LD50 at 336 h [1] is reported as over 2000 mg/kg.
In the case of `O=C(O)Cc1ccc2c(c1)SCc1cc(Cl)ccc1C2=O` [8-chloro-6,11-dihydrodibenzo-[b.e.]-thiepin-11-one-3-acetic acid], the LD50 at 336 h [1] is reported as about 300 mg/kg, the “Mean Disc. Wt. mg.± S.E.” value (Albino rats; dose 0.006 mg.) is reported as 296.8 ± 21.8 mg and the “Mean Disc. Wt. mg.± S.E.” value (Albino rats; dose 0.025 mg.) is reported as 218.8 ± 6.5 mg. The “Mean Disc. Wt. mg.± S.E.” value (Albino rats; dose 0.1 mg.) was 201.4 ± 12.0 mg and the “Mean Disc. Wt. mg.± S.E.” value (Albino rats; dose 0.4 mg.) was 147.2 ± 10.2 mg.
In the case of `COc1ccc2c(c1)CSc1cc(CC(=O)O)ccc1C2=O` [8-methoxy-6,11-dihydro-dibenzo-[b.e.]-thiepin-11-one-3-acetic acid], the “Mean Disc. Wt. mg.± S.E.” value (Albino rats; dose 0.006 mg.) is reported as 279.6 ± 13.17 mg, the “Mean Disc. Wt. mg.± S.E.” value (Albino rats; dose 0.025 mg.) is reported as 241.6 ± 7.56 mg and the “Mean Disc. Wt. mg.± S.E.” value (Albino rats; dose 0.1 mg.) is reported as 197.5 ± 25.07 mg. The “Mean Disc. Wt. mg.± S.E.” value (Albino rats; dose 0.4 mg.) was 177.9 ± 18.98 mg.
